Consider 21 molecules from patent publication US20250270222A1, “AP2 ASSOCIATED KINASE 1 INHIBITORS AND USES THEREOF” (Satellos Bioscience Inc., priority 2023, published 2025).

Common to all, as to type: biochemical
The target in experiment [1] is GAK (amino acids Q25-N335) (Homo sapiens (Human), UniProt O14976). Kind of experiment: GAK pSENs assay. The procedure:
(§1) The recombinant proteins were independently expressed in Esherichia coli BL21(DE3) cells cultured in Luria-Bertani (LB) medium until OD600 reached 0.6-0.8, then cooled to 15° C., and supplemented with 0.5 mM isopropyl 1-thio-D-galactopyranoside (IPTG) induce protein expression 16 h. Cells were harvested and resuspended in lysis buffer (50 mM HEPES pH 7.5, 500 mM NaCl, 5 mM imidazole, 5% glycerol, 0.5 mM Tris (2-carboxyethyl) phosphine (TCEP), cOmplete Protease Inhibitor Tablet (Roche)) and lysed by microfluidics high pressure homogenizer (UH-06, Union-Biotech). Proteins were purified using Ni-Affinity chromatography (His FF column, Bestchrom) and eluted stepwise in binding buffer with 20-300 mM imidazole. Removal of the hexahistidine tag was performed at 4° C. overnight using recombinant TEV protease and reacted with BirA to obtain the corresponding biotinylated-AAK1. BIKE or GAK proteins. Further separated in the reverse Strep column (Strep-Tactin® XT, IBA). The Biotin elution sample was collected containing untagged biotinylated protein was then purified by Ion-exchange chromatography (Mono Q 10/100 GL, Cytiva) and Size-exclusion chromatography (HiLoad 16/600 Superdex 200 pg, Cytiva). The pure protein was stored in a storage buffer 50 mM HEPES (pH 7.5), 300 mM NaCl, 5% glycerol at −80° C. Protein were characterized by SDS-PAGE. LC-MS and aSEC.
This example describes one illustrative method for determining the IC50 of the compounds of the present invention against GAK (amino acids Q25-N335).

Experiment [2] addresses AAK1 (amino acids T27-A365) (Homo sapiens (Human), UniProt Q2M2I8). Kind of experiment: AAK1 pSENs assay. The settings on record: ratio of AAK1 pSENs activity to GAK pSENs activity. The gist of the method:
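Untagged, biotinylated E. coli-expressed AAK1 at 20 nM preincubated with compound 15 min at 25° C in HEPES pH 7.5 buffer with 10 mM MgCl2 and 1 mM DTT. Reaction started with AQT0759 and ATP, added as 30 uM and 70 uM solutions in equal volume.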

The target in experiment [3] is BIKE (amino acids S38-E345) (K320A, K321A) (Homo sapiens (Human), UniProt Q9NSY1, K320A/K321A). The experiment can be described thus: BIKE pSENs assay. The protocol:
as §1
BIKE protein was dissolved at 20 nM in 1× enzyme solution (50 mM HEPES pH7.5, 10 mM MgCl2, 1 mM DTT, 1% glycerol, 0.5 mM EGTA, 0.01% Briji35, 0.02% BSA) and 12.5 ul was incubated with 250 nl DMSO or 250 nl compound in DMSO at 25° C. for 15 min. The reaction was started by addition of 12.5 ul of 30 uM AQT0759 (Assayquant, CSKS-AQT0759B) and 40 uM ATP which were diluted in 1× substrate dilution buffer (50 mM HEPES pH7.5, 10 mM MgCl2. 1 mM DTT, 1% glycerol, 0.5 mM EGTA, 0.01% Briji35).

Bounds are passed on as bounds.

Chain of GAK (amino acids Q25-N335) (O14976 25-335): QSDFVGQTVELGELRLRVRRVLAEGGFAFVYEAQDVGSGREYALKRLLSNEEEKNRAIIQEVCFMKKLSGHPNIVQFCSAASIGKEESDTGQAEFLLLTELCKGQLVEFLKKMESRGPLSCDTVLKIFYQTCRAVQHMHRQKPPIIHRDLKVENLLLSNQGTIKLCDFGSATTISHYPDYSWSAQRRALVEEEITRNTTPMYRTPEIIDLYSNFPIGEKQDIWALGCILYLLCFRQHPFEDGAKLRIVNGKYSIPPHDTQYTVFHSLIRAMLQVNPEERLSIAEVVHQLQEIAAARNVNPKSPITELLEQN
Chain of BIKE (amino acids S38-E345) (K320A, K321A) (Q9NSY1 38-345 K320A/K321A): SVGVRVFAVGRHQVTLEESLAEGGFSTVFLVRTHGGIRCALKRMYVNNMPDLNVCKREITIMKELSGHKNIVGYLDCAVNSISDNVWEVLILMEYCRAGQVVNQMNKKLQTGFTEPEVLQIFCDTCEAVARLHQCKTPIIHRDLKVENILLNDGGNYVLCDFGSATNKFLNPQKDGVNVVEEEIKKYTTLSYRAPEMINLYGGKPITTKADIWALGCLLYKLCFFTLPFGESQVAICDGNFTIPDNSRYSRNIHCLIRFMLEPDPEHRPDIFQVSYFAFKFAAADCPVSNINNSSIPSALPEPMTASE
Chain of AAK1 (amino acids T27-A365) (Q2M2I8 27-365): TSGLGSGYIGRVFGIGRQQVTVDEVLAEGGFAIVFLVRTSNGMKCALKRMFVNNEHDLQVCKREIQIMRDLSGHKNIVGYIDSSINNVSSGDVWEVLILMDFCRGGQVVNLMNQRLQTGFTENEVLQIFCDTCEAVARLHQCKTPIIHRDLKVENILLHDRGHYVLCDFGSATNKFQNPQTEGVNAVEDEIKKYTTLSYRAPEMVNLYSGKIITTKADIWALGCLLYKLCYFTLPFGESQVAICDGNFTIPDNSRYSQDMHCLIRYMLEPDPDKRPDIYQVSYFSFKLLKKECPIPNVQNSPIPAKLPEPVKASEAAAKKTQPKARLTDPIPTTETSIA

What is called IC50 is the concentration needed to halve the response being measured. A lower IC50 goes with greater potency in that assay. Consider `CC1(OC(=O)N2CCN(c3ccn4ncc(-c5cccnc5OC5CCC5)c4n3)CC2)COC1` [Compound I-17, (3-Methyloxetan-3-yl) 4-[3-[2-(cyclobutoxy)-3-pyridyl]pyrazolo[1,5-a]pyrimidin-5-yl]piperazine-1-carboxylate], for which the IC50 in experiment [1] and in experiment [3] was over 1500 nM in each case. In experiment [2], the “AAK1:GAK pSENs Selectivity” value was “B (B: 0.016-0.075)”.

Regarding `CC1(OC(=O)N2CCN(c3ccn4ncc(-c5cccnc5OCC5CCC5)c4n3)CC2)COC1` [Compound I-19, 3-Methyloxetan-3-yl 4-(3-(2-(cyclobutylmethoxy)pyridin-3-yl)pyrazolo[1,5-a]pyrimidin-5-yl)piperazine-1-carboxylate], the IC50 in experiment [1] and in experiment [3] was over 1500 nM throughout. Further, the “AAK1:GAK pSENs Selectivity” value in experiment [2] is on record as “D (D: 0.16-1.00)”.

Take `CC1(OC(=O)N2CCN(c3ccn4ncc(-c5cccnc5OCC5COC5)c4n3)CC2)COC1` [Compound I-20]: the “AAK1:GAK pSENs Selectivity” value in experiment [2] is “D (D: 0.16-1.00)”. In experiment [3], this molecule had a concentration for half-maximal inhibition (IC50) of over 1500 nM.

Take `CC(C)Oc1ncccc1-c1cnn2ccc(N3CCN(C(=O)O[C@@]4(C)CCNC4)CC3)nc12` [Compound I-21, [(3S)-3-Methylpyrrolidin-3-yl]4-[3-(2-isopropoxy-3-pyridyl)pyrazolo[1,5-a]pyrimidin-5-yl]piperazine-1-carboxylate]: in experiment [2], the “AAK1:GAK pSENs Selectivity” value is “B (B: 0.016-0.075)”. The IC50 in experiment [3] was over 1500 nM.

As for `O=C1C[C@H](OC(=O)N2CCN(c3ccn4ncc(-c5cccnc5NC5CCC5)c4n3)CC2)CN1` [Compound I-46, [(3S)-5-oxopyrrolidin-3-yl]4-[3-[2-(cyclobutylamino)-3-pyridyl]pyrazolo[1,5-a]pyrimidin-5-yl]piperazine-1-carboxylate], in experiment [2], the “AAK1:GAK pSENs Selectivity” value is listed as “E (E: >1.00)”. In experiment [3], this molecule registered an IC50 of over 1500 nM.

Turning to `O=C1C[C@H](OC(=O)N2CCN(c3ccn4ncc(-c5cccnc5NC5CNC5)c4n3)CC2)CN1` [Compound I-49, (S)-5-oxopyrrolidin-3-yl 4-(3-(2-(azetidin-3-ylamino)pyridin-3-yl)pyrazolo[1,5a]pyrimidin-5-yl)piperazine-1-carboxylate], the IC50 in experiment [3] was over 1500 nM.

Take `C[C@@]1(OC(=O)N[C@H]2CCN(c3ccn4ncc(-c5cccnc5OC5CC5)c4n3)C2)CCNC1` [Compound I-57, (R)-3-methylpyrrolidin-3-yl ((S)-1-(3-(2-cyclopropoxypyridin-3-yl)pyrazolo[1,5-a]pyrimidin-5-yl)pyrrolidin-3-yl)carbamate]: the “AAK1:GAK pSENs Selectivity” value in experiment [2] is “C (C: 0.076-0.15)”. This molecule displayed an IC50 in experiment [3] of over 1500 nM.

`O=C(O[C@H]1CO[C@H]2OCC[C@H]21)N1CCN(c2ccn3ncc(-c4cnccn4)c3n2)CC1` [Compound I-66, [(3aS,4R,6aR)-2,3,3a, 4,5,6a-hexahydrofuro[2,3-b]furan-4-yl]-4-(3-pyrazin-2-ylpyrazolo[1,5-a]pyrimidin-5-yl)piperazine-1-carboxylate]: the “AAK1:GAK pSENs Selectivity” value in experiment [2] was “D (D: 0.16-1.00)”. Further, the IC50 in experiment [3] was over 1500 nM.

Molecule `COC(=O)N1CC(Oc2ncccc2-c2cnn3ccc(N4CCN(C(=O)O[C@@H]5CC(=O)N(CCO)C5)CC4)nc23)C1` [Compound I-84, [(3R)-1-(2-hydroxyethyl)-5-oxo-pyrrolidin-3-yl]4-[3-[2-(1-methoxycarbonylazetidin-3-yl)oxy-3-pyridyl]pyrazolo[1,5-a]pyrimidin-5-yl]piperazine-1-carboxylate] showed an IC50 in experiment [1] of over 1500 nM. Also, in experiment [2], the “AAK1:GAK pSENs Selectivity” value is “B (B: 0.016-0.075)”.

As for `CN1C[C@@H](OC(=O)N2CCN(c3ccn4ncc(-c5cc(F)cnc5OC5CC5)c4n3)CC2)CC1=O` [Compound I-86], in experiment [1], the IC50 is over 1500 nM. For the same molecule, the “AAK1:GAK pSENs Selectivity” value in experiment [2] is “A (A: ≤0.015)”.

The molecule `COCCN1C[C@@H](OC(=O)N2CCN(c3ccn4ncc(-c5cc(F)cnc5OC5CC5)c4n3)CC2)CC1=O` [Compound I-89] yielded an IC50 in experiment [1] of over 1500 nM. Moreover, the “AAK1:GAK pSENs Selectivity” value in experiment [2] is recorded as “A (A: ≤0.015)”.

With `CN1C[C@@H](OC(=O)N2CCN(c3nc4c(-c5cccnc5OC5CC5)cnn4cc3F)CC2)CC1=O` [Compound I-109, [(3S)-1-methyl-5-oxo-pyrrolidin-3-yl]4-[3-[2-(cyclopropoxy)-3-pyridyl]-6-fluoro-pyrazolo[1,5-a]pyrimidin-5-yl]piperazine-1-carboxylate], the IC50 in experiment [1] was over 1500 nM. Moreover, the “AAK1:GAK pSENs Selectivity” value in experiment [2] is “A (A: ≤0.015)”.

Regarding `[2H]C([2H])([2H])N1C[C@@H](OC(=O)N2CCN(c3ccn4ncc(-c5cccnc5OC5CC5)c4n3)CC2)CC1=O` [Compound I-113, [(3S)-5-oxo-1-(trideuteriomethyl)pyrrolidin-3-yl]4-[3-[2-(cyclopropoxy)-3-pyridyl]pyrazolo[1,5-a]pyrimidin-5-yl]piperazine-1-carboxylate], the IC50 in experiment [1] is over 1500 nM. For the same molecule, the “AAK1:GAK pSENs Selectivity” value in experiment [2] is listed as “A (A: ≤0.015)”.

Consider `CC(C)N1C[C@@H](OC(=O)N2CCN(c3ccn4ncc(-c5cccnc5OC5CC5)c4n3)CC2)CC1=O` [Compound I-114, [(3S)-1-isopropyl-5-oxo-pyrrolidin-3-yl]-4-[3-[2-(cyclopropoxy)-3-pyridyl]pyrazolo[1,5-a]pyrimidin-5-yl]piperazine-1-carboxylate], for which the half-maximal inhibitory concentration (IC50) in experiment [1] is over 1500 nM. In experiment [2], the “AAK1:GAK pSENs Selectivity” value is “B (B: 0.016-0.075)”.

Consider `COCCN1C[C@@H](OC(=O)N2CCN(c3ccn4ncc(-c5cccnc5OC5CC5)c4n3)CC2)CC1=O` [Compound I-115, [(3S)-1-(2-methoxyethyl)-5-oxo-pyrrolidin-3-yl]-4-[3-[2-(cyclopropoxy)-3pyridyl]pyrazolo[1,5-a]pyrimidin-5-yl]piperazine-1-carboxylate], for which the 50% inhibitory concentration (IC50) in experiment [1] was over 1500 nM. The “AAK1:GAK pSENs Selectivity” value in experiment [2] is listed as “A (A: ≤0.015)”.

On to `[2H]C([2H])([2H])N1C[C@@H](OC(=O)N2CCN(c3nc4c(-c5cccnc5OC5CC5)cnn4cc3F)CC2)CC1=O` [Compound I-116, [(3S)-5-oxo-1-(trideuteriomethyl)pyrrolidin-3-yl]4-[3-[2-(cyclopropoxy)-3-pyridyl]-6-fluoro-pyrazolo[1,5-a]pyrimidin-5-yl]piperazine-1-carboxylate], for which, in experiment [1], the half-inhibitory concentration (IC50) was over 1500 nM. Moreover, the “AAK1:GAK pSENs Selectivity” value in experiment [2] was “A (A: ≤0.015)”.

In the case of `[2H]C([2H])([2H])N1C[C@@H](OC(=O)N2CCN(c3nc4c(-c5cc(F)cnc5OC5CC5)cnn4cc3F)CC2)CC1=O` [Compound I-118, [(3S)-5-oxo-1-(trideuteriomethyl)pyrrolidin-3-yl]4-[3-[2-(cyclopropoxy)-5-fluoro-3-pyridyl]-6-fluoro-pyrazolo[1,5-a]pyrimidin-5-yl]piperazine-1-carboxylate], the concentration for half-maximal inhibition (IC50) in experiment [1] is over 1500 nM. Besides, the “AAK1:GAK pSENs Selectivity” value in experiment [2] is on record as “A (A: ≤0.015)”.

Regarding `CN1C[C@@H](OC(=O)N2CCN(c3ccn4ncc(-c5cccnc5OC5CCOC5)c4n3)CC2)CC1=O` (stereo partly shown) [Compound I-119], the IC50 in experiment [1] was over 1500 nM. Also, in experiment [2], the “AAK1:GAK pSENs Selectivity” value is given as “B (B: 0.016-0.075)”.

In the case of `CN1C[C@@H](OC(=O)N2CCN(c3nc4c(-c5cccnc5OC5CCOC5)cnn4cc3F)CC2)CC1=O` (stereo partly drawn) [Compound I-120, [(3S)-1-methyl-5-oxo-pyrrolidin-3-yl]4-[6-fluoro-3-(2-tetrahydrofuran-3-yloxy-3-pyridyl)pyrazolo[1,5-a]pyrimidin-5-yl]piperazine-1-carboxylate], the concentration for half-maximal inhibition (IC50) in experiment [1] was over 1500 nM. Besides, the “AAK1:GAK pSENs Selectivity” value in experiment [2] is “B (B: 0.016-0.075)”.

`CN1C[C@@H](OC(=O)N2CCN(c3nc4c(-c5cccnc5OC5CCCC5)cnn4cc3F)CC2)CC1=O` [Compound I-121, [(3S)-1-methyl-5-oxo-pyrrolidin-3-yl]-4-[3-[2-(cyclopentoxy)-3-pyridyl]-6-fluoro-pyrazolo[1,5-a]pyrimidin-5-yl]piperazine-1-carboxylate] had an IC50 in experiment [1] of over 1500 nM. Further, the “AAK1:GAK pSENs Selectivity” value in experiment [2] is recorded as “B (B: 0.016-0.075)”.

For `CN1C[C@@H](OC(=O)N2CCN(c3nc4c(-c5cccnc5OC5CCOCC5)cnn4cc3F)CC2)CC1=O` [Compound I-122], the IC50 in experiment [1] is over 1500 nM. Further, in experiment [2], the “AAK1:GAK pSENs Selectivity” value is on record as “A (A: ≤0.015)”.
